Measured values published in patent US9121846B2, “Daikenchuto bioassay method and quality management method using same” (TSUMURA & Co., priority 2010, dated 2015).

System: Rat pancreatic cancer cell line RIN-14B
Test: Serotonin (5-HT) release test in cultured serotonin-producing cells, 5-HT measured by EIA
Type: cell-based
Conditions: positive control, final concentration 100 μmol/L, 1 hour culture
Description: The crude drug mixture of the proportions presented in Table 1 was extracted by heating at 100° C. for 1 hour with purified water used in 10 times the amount of the mixture weight, and the extract was processed into a powder to obtain a Koi-free Daikenchuto extract powder. The Koi-free Daikenchuto extract powder was used to prepare a 100 mg/mL DMSO suspension, and the suspension was mixed with an 88.8 mg/mL maltose aqueous solution at a 1:9 ratio to prepare a […] Daikenchuto solution. The solution was diluted with 0.1% BSA-Hanks buffer* to make the concentration 9 mg/mL and subjected to 15-min sonication to prepare a Daikenchuto test sample.
Separately, a DMSO solution of 100 mmol/L AITC was prepared as a positive control sample by adding allyl isothiocyanate (AITC; Wako Pure Chemical Industries, Ltd.) to DMSO. […]
The plate was washed three times with a washing buffer attached to the kit (300 μL/well) to remove the free components. […] After confirming the development of color, the reaction was stopped by adding a reaction stopper ([…] and the absorbance at 405 nm was measured. The results are presented in FIG. 1.

## C=CCN=C=S [AITC, allyl isothiocyanate]
  5-HT concentration compared with the control: evidently higher
